Test results taken from ChEMBL document CHEMBL6182886, “The Liebeskind-Srogl cross-coupling reaction towards the synthesis of biologically active compounds” (Eur J Med Chem, 2025).
Converted amounts (≈) assume the structure as drawn.

Key:
[1] = Cytotoxicity against human HOG.R5 cells; format: functional, cell-based
[2] = system: Human immunodeficiency virus 1; experiment: Antiviral activity against HIV-1 infected in human HOG.R5 cells assessed as reduction in viral growth; format: functional, organism-based; conditions: Human immunodeficiency virus 1, HOG.R5
P815 = experiment: Anticancer activity against mouse P815 cells assessed as reduction in cell viability measured for 48 hrs by MTT assay; format: functional, cell-based; conditions: P815, 48 h
[3] = Anticancer activity against human HEP cells assessed as reduction in cell viability measured for 48 hrs by MTT assay; format: toxicity, cell-based
KB = experiment: Cytotoxicity against human KB cells; format: functional, cell-based
L1210 = experiment: Cytotoxicity against mouse L1210 cells; format: functional, cell-based
Cannabinoid receptor 1 = Cannabinoid receptor 1 (Rattus norvegicus, UniProt P20272); experiment: Binding affinity to rat brain CB1 receptor assessed as inhibition constant; format: tissue-based
Cannabinoid receptor 2 = Cannabinoid receptor 2 (Mus musculus, UniProt P47936); experiment: Binding affinity to mouse CB2 receptor extracted from HEK293 cell membrane assessed as inhibition constant; format: cell membranes
Sequence of Cannabinoid receptor 2 (P47936 whole entry): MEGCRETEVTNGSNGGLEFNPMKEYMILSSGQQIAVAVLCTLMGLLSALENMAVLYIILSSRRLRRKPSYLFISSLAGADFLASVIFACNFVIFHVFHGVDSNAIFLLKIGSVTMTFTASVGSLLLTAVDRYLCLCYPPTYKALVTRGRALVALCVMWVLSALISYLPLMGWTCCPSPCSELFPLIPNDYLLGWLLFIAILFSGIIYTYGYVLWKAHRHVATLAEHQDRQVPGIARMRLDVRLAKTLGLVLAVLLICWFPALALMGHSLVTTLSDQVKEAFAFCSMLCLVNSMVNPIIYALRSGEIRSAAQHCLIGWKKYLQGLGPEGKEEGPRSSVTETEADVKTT

Sequence of Cannabinoid receptor 1 (P20272 whole entry): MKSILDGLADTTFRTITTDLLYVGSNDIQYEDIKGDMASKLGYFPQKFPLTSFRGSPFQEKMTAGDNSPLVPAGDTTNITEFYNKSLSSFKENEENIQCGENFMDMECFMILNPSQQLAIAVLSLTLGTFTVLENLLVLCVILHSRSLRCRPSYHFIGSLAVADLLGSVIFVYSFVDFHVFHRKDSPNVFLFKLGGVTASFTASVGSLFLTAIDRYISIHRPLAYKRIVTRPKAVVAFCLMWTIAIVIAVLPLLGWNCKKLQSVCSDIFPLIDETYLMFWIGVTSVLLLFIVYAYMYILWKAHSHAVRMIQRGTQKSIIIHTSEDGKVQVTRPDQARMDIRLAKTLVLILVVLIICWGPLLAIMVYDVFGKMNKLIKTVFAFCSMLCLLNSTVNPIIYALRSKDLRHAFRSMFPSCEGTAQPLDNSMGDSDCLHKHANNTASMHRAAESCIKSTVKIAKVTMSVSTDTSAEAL

CC(C)=CCC/C(C)=C\[C@H]1C(=O)C(C)=C[C@@H]1O gave an IC50 [1] of 5.7 µg/mL (≈ 24.3 µM) and an IC50 [2] of 2 µg/mL (≈ 8.53 µM).
CCCCCCCCCCCCCC[C@@H]1CCCN1C gave an IC50 (P815) of 10 µg/mL (≈ 35.5 µM) and an IC50 [3] of 5 µg/mL (≈ 17.8 µM).
C=C1/C=C(\C)[C@@H](C)[C@@H](O)CC(=O)[C@@H](C)CC(=O)C[C@H]2CC[C@@H](O2)[C@@H](/C=C/C=C(\C)[C@@H](O)C(=C)CCCC)OC(=O)C[C@@H]2O[C@H](C[C@H]2C)[C@H](O)[C@@H]1O showed an IC50 (KB) of 0.0046 µg/mL (≈ 0.00643 µM) and an IC50 (L1210) of 0.0058 µg/mL (≈ 0.00811 µM).
In the case of CC(C)=CCC/C(C)=C/[C@H]1C(=O)C(C)=C[C@@H]1O, the IC50 [1] is reported as 13.2 µg/mL (≈ 56.3 µM) and the IC50 [2] is reported as 5 µg/mL (≈ 21.3 µM).
COCOc1cc(C2=NCCC2)cc2c1[C@@H]1C[C@H](OCOC)CC[C@H]1C(C)(C)O2 showed a Ki (Cannabinoid receptor 1) of 0.0163 µM and a Ki (Cannabinoid receptor 2) of 0.0123 µM.
With CCCCCCC1(c2cc(O)c3c(c2)OC(C)(C)[C@@H]2CC[C@@H](O)C[C@@H]32)CN(C)C1 the Ki (Cannabinoid receptor 1) was 0.0192 µM and the Ki (Cannabinoid receptor 2) was 0.0213 µM.
With C=C1/C=C(\C)[C@@H](C)[C@@H](O)CC(=O)[C@@H](C)CC(=O)C[C@H]2CC[C@@H](O2)[C@@H](/C=C/C=C(C)C)OC(=O)C[C@@H]2O[C@H](C[C@H]2C)[C@H](O)[C@@H]1O the IC50 (KB) was 3.2 µg/mL (≈ 5.19 µM) and the IC50 (L1210) was 1.5 µg/mL (≈ 2.43 µM).
